One series relates to IGROV-1. The experiment in a line: Antiproliferative activity against human IGROV-1 cells assessed as cell growth inhibition measured after 96 hrs by resazurin dye based celltiter-blue viability assay. The class given is functional. A general note: Alamar Blue is a resazurin reagent that responds to reducing activity.
The next series relates to CH1. The series can be described thus: Antiproliferative activity against human CH1 cells assessed as cell growth inhibition measured after 96 hrs by resazurin dye based celltiter-blue viability assay. It is filed as functional.
Another series relates to Caov-3 cell line. The series can be described thus: Antiproliferative activity against human Caov-3 cells assessed as cell growth inhibition measured after 96 hrs by resazurin dye based celltiter-blue viability assay. The class given is functional.
Another series deals with OVCAR-3. The series can be described thus: Antiproliferative activity against human OVCAR-3 cells assessed as cell growth inhibition measured after 96 hrs by resazurin dye based celltiter-blue viability assay. It is filed as functional.
The test system of the next series is OVCAR-5. The experiment in a line: Antiproliferative activity against human OVCAR-5 cells assessed as cell growth inhibition measured after 96 hrs by resazurin dye based celltiter-blue viability assay. The class given is functional.
The next series in a line: physchem. The settings on record: buffer, pH 7.4.
For the next series, the system named is OVCAR-8. The experiment in a line: Antiproliferative activity against human OVCAR-8 cells assessed as cell growth inhibition measured after 96 hrs by resazurin dye based celltiter-blue viability assay. The class given is functional.
Series [1] is described as follows: Stability in pooled mouse plasma assessed as drug degradation at 1 uM. The class given is ADME, cell-free.
In another series the test system is RMG-I. The experiment in a line: Antiproliferative activity against human RMG-I cell line assessed as cell growth inhibition measured after 96 hrs by resazurin dye based celltiter-blue viability assay. The class given is functional.
The subject of a further series is PA-1. The series can be described thus: Antiproliferative activity against human PA-1 cells assessed as cell growth inhibition measured after 96 hrs by resazurin dye based celltiter-blue viability assay. It is filed as functional.
The nature of series [2]: Unbound AUC (0 to 6 hrs) in BALB/c mouse at 5 mg/kg, po or 5 mg/kg, iv measured for 24 hrs by LC-MS/MS analysis. It is filed as ADME, organism-based. Conditions: in vivo.
The species named for another series is Mus musculus. Conditions: dose 50.0 mg/kg, route po.
Series [3] can be described thus: Fraction unbound in BALB/c mouse blood at 5 mg/kg, po or 5 mg/kg, iv measured for 24 hrs by LC-MS/MS analysis. It is filed as ADME, organism-based.
Series [4] in a line: AUC (0 to 6 hrs) in BALB/c mouse at 5 mg/kg, po measured for 24 hrs by LC-ESI-MS/MS analysis. The class given is ADME, organism-based. Also on record: time 24 hrs, dose 5 mg/kg, route po. Conditions: in vivo.
The nature of series [5]: Reversal of doxorubicin resistance in human doxorubicin resistant CH1 cells assessed as doxorubicin GI50 incubated for 96 hrs by resazurin dye based celltiter-blue cell viability assay (reference value: 310 nM). The class given is functional.
Series [6] in a line: Unbound AUC (0 to 6 hrs) in BALB/c mouse at 5 mg/kg, po or 1 mg/kg, iv measured for 24 hrs by LC-MS/MS analysis. It is filed as ADME, organism-based. The settings on record: in vivo.

The source of these data is ChEMBL document CHEMBL5352500, “HSF1 Pathway Inhibitor Clinical Candidate (CCT361814/NXP800) Developed from a Phenotypic Screen as a Potential Treatment for Refractory Ovarian Cancer and Other Malignancies” (J Med Chem, 2023).

The source made the active and inactive calls. No cut-off for these calls is given here.

As usually defined, the GI50 is the concentration that inhibits growth by half. A word on the logD: it is the decadic logarithm of the distribution of all forms, ionised or not, between an organic phase and buffer at a given pH. The term fraction unbound denotes free concentration divided by total concentration. Low values mean little free substance, high ones much free substance. In general, AUC refers to concentration integrated over time. A higher AUC goes with more exposure.

With `Cc1ccc(NC(=O)c2ccc3c(c2)OCCO3)cc1NC(=O)c1ccc2nc(OCCN3CCCC3)ccc2c1`, the GI50 in the series with IGROV-1, in the series on CH1, in the series on Caov-3 cell line, with OVCAR-3, with OVCAR-5 and in the series with OVCAR-8 was 50.1 nM throughout. Besides, the GI50 in the series with RMG-I and in the series with PA-1 was 50.1 nM throughout. In “physchem”, this compound yielded a pH-dependent lipophilicity (logD) of 2.1. For the same compound, the Stability entry in series [1] is reported as “Stable”.
The compound `Cc1ccc(NC(=O)c2ccc3c(c2)OCCO3)cc1NC(=O)c1ccc2nc(OCCN3CCCCC3)ccc2c1` gave a fAUC in [2] of 12 nM·h.
As for `CCN1CCN(Cc2ccc3cc(C(=O)Nc4cc(NC(=O)c5ccc6c(c5)OCCO6)ccc4F)ccc3n2)CC1`, the inhibition result in the series listed under Mus musculus was “Active”.
In series [3], `CCN1CCN(Cc2ccc3cc(C(=O)Nc4cc(NC(=O)c5ccc6c(c5)OCCO6)ccc4Cl)ccc3n2)CC1` registered a fraction unbound at 24 h of 0.005. The AUC in series [4] was determined as 3.9 µM·h. This compound also returned a fAUC in [2] of 20 nM·h.
Regarding `COc1ccc(CCN(C)CCCC(C#N)(c2ccc(OC)c(OC)c2)C(C)C)cc1OC` (configuration not stated), the concentration for 50% growth inhibition (GI50) in [5] was 1.9 nM.
`CC(C)N1CCN(Cc2ccc3cc(C(=O)Nc4cc(NC(=O)c5ccc6c(c5)OCCO6)ccc4Cl)ccc3n2)CC1` showed a fAUC in series [6] of 26 nM·h.
